# Experimental data from patent publication US10751418B2, “Orally bioavailable lipid-based constructs” (SDG, Inc., priority 2007, dated 2020).
# No end group written: not given here.
# Experiments:
# Format in all cases: in vivo
# [1] = test system: mice made diabetic by streptozotocin and alloxan; assay: Blood glucose after oral dosing via drinking water in alloxan-streptozotocin treated mice; details: day seven, 0.1 U/ml in drinking water, tail-vein blood
# From the text: Mice used in the present experiment were made diabetic by administering streptozotocin and alloxan. The diabetic animals were then divided into two groups. The control group (11 mice) was orally dosed with regular insulin. The experimental group (7 mice) was orally dosed with a composition comprising insulin and approximately 61 mole percent 1,2 distearoyl-sn-glycero-3-phosphocholine, approximately 22 mole percent dihexadecyl phosphate, approximately 16 mole percent cholesterol, and approximately 1 mole percent poly[Cr-bis(N-2,6-diisopropylphenylcarbamoylmethyl iminodiacetic acid)] (wherein a known portion of the phospholipid component comprised ^14C labeled phospholipid). Dosing was accomplished utilizing the water bottle dosing method described in Experiment 2.
# After being made diabetic, […] in both groups were treated identically over a 7 day period and fed with plain food and plain water. Following this 7 day period, rats in the control group were treated for an additional 7 day experimental period with food and regular insulin in the available drinking water at 0.1 U/ml. Over the same 7 day experimental period, the experimental group was fed regular food with the composition of the invention available in the drinking water at 0.1 U/ml. At the end of each 7-day period, blood glucose was measured in a tail-vein sample of blood by a Beckman Blood Glucose Analyzer.
# normal, fasted rats = assay: Blood calcium levels after calcitonin administration; details: subcutaneous injection, control rats
# Protocol: Normal, fasted, control rats were given a dose of salmon calcitonin via subcutaneous injection such that an initial 10% reduction in blood calcium was observed. Blood calcium levels were then measured for six hours post injection. An experimental group of rats was given the same effective dose of calcitonin by oral gavage, in the form of a composition comprising calcitonin and approximately 62 mole percent 1,2 distearoyl-sn-glycero-3-phosphocholine, approximately 22 mole percent dihexadecyl phosphate, and approximately 16 mole percent cholesterol. Blood calcium levels were followed for six hours (FIG. 8). […] This difference was statistically significant (FIG. 8).
# [2] = test system: insulin deficient rats (alloxan and streptozotocin); assay: Liver glycogen after oral GLP-1 in alloxan/streptozotocin treated rats; details: Dose GLP-1 0.01 mg/rat, 2 hours post dosing
# Protocol: Rats were fasted overnight. Subsequently, 800 mg each of alloxan and streptozotocin were dissolved in 40 mL of PBS (pH 7, 0.01M). The fasted rats were then treated immediately with a 0.5 mL IP dose to induce insulin deficiency. The animals were then stabilized overnight with water and food. Following stabilization, the rats were fasted overnight to deplete liver glycogen.
# Subsequently, the rats were administered 1.5 g glucose/kg body weight and GLP-1 in the form of a GLP-1 associated with a composition comprising approximately 62 mole percent 1,2 distearoyl-sn-glycero-3-phosphocholine, approximately 22 mole percent dihexadecyl phosphate, and approximately 16 mole percent cholesterol (“associated GLP-1”). In separate experiments, the amount of associated GLP-1 was varied. Liver glycogen was measured chemically at 2 hours post dosing.
# As a control, unassociated GLP-1 was gavaged in place of associated GLP-1. In a separate control, GLP-1, in a dose similar to that orally gavaged, was injected intraperitoneally.
substance,measurement,setting,value
regular insulin: regular insulin orally dosed to the control group in drinking water,blood glucose,[1],not altered at all
salmon calcitonin,initial reduction in blood calcium,"normal, fasted rats",10%
"GLP-1: unassociated GLP-1 peptide, gavaged or injected intraperitoneally as control (HAEGTFTSDVSSYLEGQAAKEFIAWLVKGR; ends and bridges not checked; UniProt P01275 98-127, looked up)",Liver Glycogen,[2]; intraperitoneal,59 ± 44 mg/g liver
same,Liver Glycogen,[2]; oral gavage,40 ± 22 mg/g liver
